From patent publication US20230293478A1, “NITROGEN-CONTAINING ANALOGS OF SALINOMYCIN FOR USE IN ACUTE MYELOID LEUKEMIA” (Centre National de la Recherche Scientifique (CNRS), priority 2020, published 2023)

Assays:
[1] = tested on: SKM-1; experiment: IC50 determination (resazurin), SKM-1; assay type: cell-based; details: Homo sapiens; SKM-1 cell line, 72 hours
Protocol: (§1) Cells were seeded at a constant density prior to treatment in triplicate and treated with either ironomycin or DMSO over the indicated time period. Drug was refreshed at least every two days. Cells were stained with DAPI and live cell number was calculated using the BD FACSVerse (BD Biosciences). CellTitreGlo (Promega) assays were performed as per manufacturer's instructions in a 96 well plate format. To determine the half-maximal inhibitory concentration (IC50) for ironomycin, 24 h after seeding the cells at a constant density in triplicate, cells were treated with ironomcyin or DMSO for 72 hours. At day 3, after incubating the cells with 600 μM of resazurin for 6 h, fluorescence was measured at λex=530 nm and λem=590 nm, using a Microplate Reader (EnSpire, Perkin Elmer). Relative fluorescence units were converted to per cent of inhibition relative to controls on the same plate, and the data were fitted against a four-parameter logistic model to determine the IC50.

[2] = tested on: AML cell lines; experiment: Cell proliferation and PI cell death in AML cell lines; assay type: cell-based, human; details: all AML cell lines tested
Protocol: as §1
(§2) Cell death, cells were washed once with PBS and assessed using propidium iodide PI from staining (Sigma) according to manufacturer's instructions. Lipid peroxidation was assessed with BODIPYC11 staining (Thermo Fisher D3861). Cell were washed once with PBS and stained for 30 minutes in the dark at room temperature in 1 ml of 7.5 μM PBS solution, washed once and assessed according to manufacturer's instructions. […]

[3] = tested on: MV4-11; experiment: IC50 determination (resazurin), MV4-11; assay type: cell-based; details: Homo sapiens; MV4-11 cell line, 72 hours
Protocol: as §1

[4] = tested on: cleaved PARP1 and cleaved caspase 3 in MOLM-13 cell line; experiment: Immunoblot of cleaved PARP1 and cleaved caspase 3; assay type: cell-based, human; details: 500 nM, 24 h
Protocol: Cells were lysed in 20 mM HEPES pIH7.9, 0.5 mM EDTA, 2% SDS plus 1× protease inhibitor cocktail (Roche) by brief sonication. Lysates were heated to 95° C. in SDS sample buffer with 50 mM DTT for 5 min, separated by SDS-PAGE and transferred to PVDF membrane (Millipore). Membranes were blocked in 5% milk or BSA in TBS +0.1% Tween-20, probed with the indicated antibodies, and reactive bands visualised using ECL Prime (GE).

[5] = tested on: human AML cell lines; experiment: IC50 determination across various human AML cell lines; assay type: cell-based; details: range over various human AML cell lines, 72 hours; read-out: Half maximal inhibitory concentration (IC50)
Protocol: as §1

[6] = tested on: WT MV4; 11 cell line; experiment: PI cell death in medium with different glucose concentration; assay type: cell-based, human; details: 500 nM, 48 h
Protocol: (§3) Cell death, cells were washed once with PBS and assessed using propidium iodide PI from staining (Sigma) according to manufacturer's instructions. Lipid peroxidation was assessed with BODIPYC11 staining (Thermo Fisher D3861). Cell were washed once with PBS and stained for 30 minutes in the dark at room temperature in 1 ml of 7.5 μM PBS solution, washed once and assessed according to manufacturer's instructions. Mitochondrial ROS were assessed with mitosox red probe (thermofisher M36008) according to manufacturer's instructions. All flow cytometry analyses were performed on a LSR Fortessa X-20 flow cytometer (BD Biosciences) and all data analysed with FlowJo. Cell sorting was performed on a FACSAria Fusion 5 (BD Biosciences).

[7] = tested on: lysosomal iron in MOLM13 cells; experiment: Lysosomal iron, RhoNoxM probe flow cytometry; assay type: cell-based, human
Protocol: Ironomycin (AM5) and AM23 were synthesized as previously described (Mai et al., 2017), venetoclax (ABT-199), biranapant and IDN-6556 are commercially available. Metformin and phenformin, were purchased from sigma (PHR1084 and PHR1573) and reconstituted freshly in culture medium. Turn-off Fe2+ probe (Petrat et al., 2002) was synthesized as previously reported (Muller et al., 2018), dose was 1 μM for 1 h for flow cytometry experiments. RhonoxM (Hirayarna et al., 2013) was synthesized as previously reported (Mai et al., 2017), dose was 1 μM, 1 h for flow cytometry experiments. Liproxstatin-1 (sigma SML1414, DMSO), ferrostatin (sigma SML0583, DMSO), RSL3 (sigma SML2234, DMSO), 6 aminonicotidamide (sigma A68203, DMSO), Z-VADfmk (R&D system FMK001, DMSO).

[8] = tested on: mitochondria in MV4; 11 cells; experiment: Transmission electron microscopy of mitochondria; assay type: cell-based, human; details: 500 nM, 16 h
Protocol: Cells were fixed in 2% GA in 0.1M sodium cacodylate buffer for 2 hours at room temperature, rinsed with 0.1M na-cacodylaatbuffer (5×10 min), and posffixation was done with 1% Osmium tetroxide and 1.5% Potassium ferricyanide for 2 hours at 4C in the dark. After rinsing in milliQ water, cells were stained with 0.5% Uranylacetate in MQ (±PH 4) for 1 h at 4° C. Cells were scraped and embedded in low melting agarose before serial dehydration in ethanol followed by propylene oxide and embedding into epon-araldyte resin. After polymerisation of the resin at 65 C for 48 hours, ultrathin sections were cut on a Leica UCT ultramicrotome and sections stained with uranyl acetate and lead citrate. Sections were examined on a Jeol JEM-1400Plus transmission electron microscope equipped with a Matataki flash camera at 80 keV.

[9] = tested on: mitochondrial ROS in MV4; 11 and OCI-AML3; experiment: Mitochondrial ROS, Mitosox Red flow cytometry; assay type: cell-based, human; details: 500 nM, 24 hours
[10] = tested on: WT MV4; 11 cell line; experiment: Cell death analysis (PI, Cell titer glow) in WT MV4;11; assay type: cell-based, human; details: 24 h
Protocol: as §1, §2

[11] = tested on: K 562; experiment: IC50 determination (resazurin), K 562; assay type: cell-based; details: Homo sapiens, K562; K 562 cell line, 72 hours
Protocol: as §1

[12] = tested on: lipid ROS in OCIAML3 and MOLM-13 cells; experiment: Lipid peroxidation, C11 BODIPY 581/591 staining; assay type: cell-based, human; details: 500 nM, 48 hours
Protocol: as §3

[13] = tested on: HEL 92.1.7; experiment: IC50 determination (resazurin), HEL 92.1.7; assay type: cell-based; details: Homo sapiens; HEL 92.1.7 cell line, 72 hours
Protocol: as §1

[14] = tested on: OCI-AML3; experiment: IC50 determination (resazurin), OCI-AML3; assay type: cell-based; details: Homo sapiens, OCI-AML-3; OCI-AML3 cell line, 72 hours
Protocol: as §1

[15] = tested on: HL-60; experiment: IC50 determination (resazurin), HL-60; assay type: cell-based; details: Homo sapiens; HL-60 cell line, 72 hours
Protocol: as §1

[16] = tested on: KG1; experiment: IC50 determination (resazurin), KG1; assay type: cell-based; details: Homo sapiens, KG-1; KG1 cell line, 72 hours
Protocol: as §1

[17] = tested on: NB4; experiment: IC50 determination (resazurin), NB4; assay type: cell-based; details: Homo sapiens, NB-4; NB4 cell line, 72 hours
Protocol: as §1

[18] = tested on: NOMO-1; experiment: IC50 determination (resazurin), NOMO-1; assay type: cell-based; details: Homo sapiens; NOMO-1 cell line, 72 hours
Protocol: as §1

[19] = Mai et al., 2017; cited from earlier work
[20] = tested on: MOLM-13; experiment: IC50 determination (resazurin), MOLM-13; assay type: cell-based; details: Homo sapiens; MOLM-13 cell line, 72 hours
Protocol: as §1

[21] = tested on: mitochondrial iron in MOLM13 cells; experiment: ICP-MS iron on isolated mitochondria; assay type: cell-based, human; details: ICP-MS on isolated mitochondria after treatment
[22] = tested on: KASUMI-1; experiment: IC50 determination (resazurin), KASUMI-1; assay type: cell-based; details: Homo sapiens; KASUMI-1 cell line, 72 hours
Protocol: as §1

[23] = tested on: MV4,11 cells transplanted into NSG mice; experiment: AML xenograft model, survival; assay type: in vivo, mouse; details: 5 days/week for 4 weeks, single agent
Protocol: Ironomycin was dissolved in PBS+2.5% DMSO. […] Animals were euthanized at the completion of treatment.

[24] = tested on: primary AML samples derived from patients with venetoclax resistant or refractory disease; experiment: Primary patient synergy analysis (PI viability, Bliss); assay type: cell-based, human; details: monotherapy, 1 μM, 5 days, five primary samples
Protocol: Samples were collected from patients with AML treated at the Alfred Hospital after obtaining informed consent. Studies were conducted in accordance with the approved protocols through the Human Research Ethics Committee of the Alfred Hospital and the Declaration of Helsinki for all subjects. Primary AML cells were cultured in StemSpan SFEM (Stemcell Technologies) supplemented with 10 ng/mL IL-3, 10 ng/mL IL-6, 50 ng/mL SCF and 50 ng/mL FLT3L (all Peprotech) and 35 nM UM171 and 500 nM stemreginin (StemCell Technologies). For primary patient synergy analyses, 50,000 AML cells were plated in each well of a 96-well plate, and cultured with escalating doses of ironomycin and venetoclax for 5 days in medium conditions as described above. After 5 days, viability was assessed via propidium iodide staining and flow cytometry (BD FACSCanto). Synergy was determined using the Bliss synergy model.

**Q.** Which IC50 [1] does the source give for `C#CCN[C@@H]1C=C[C@]2(O[C@H]([C@@H](CC)C(=O)[C@@H](C)[C@@H](O)[C@H](C)[C@@H]3O[C@@H]([C@@H](CC)C(=O)O)CC[C@@H]3C)[C@@H](C)C[C@H]2C)O[C@@]12CC[C@@](C)([C@H]1CC[C@](O)(CC)[C@H](C)O1)O2` [Ironomycin] here?
**A.** 45 nM

**Q.** What about the “cell death (PI staining)” value [2] of the same compound?
**A.** rapid cell death

**Q.** And the proliferation [2]?
**A.** proliferation block in a dose dependent manner

**Q.** And the IC50 [3]?
**A.** 61 nM

**Q.** What about the “cleavage of caspase 3 and PARP1” value [4] of the same compound?
**A.** did not cleaved caspase 3 nor PARP1

**Q.** And the IC50 [5]?
**A.** 14 to 410 nM

**Q.** What about the “efficacy in killing AML cells” value ([6]; increased glucose concentration) of the same compound?
**A.** higher efficacy

**Q.** What about the “efficacy in killing AML cells” value ([6]; low glucose conditions) of the same compound?
**A.** less efficient

**Q.** And the lysosomal iron [7]?
**A.** increased lysosomal iron

**Q.** What about the cristae structure [8] of the same compound?
**A.** disturbed the cristae structure

**Q.** What about the “mitochondrial ROS” value [9] of the same compound?
**A.** increased mitochondrial ROS

**Q.** And the cell death [10]?
**A.** induce cell death

**Q.** What about the IC50 [11] of the same compound?
**A.** 410 nM

**Q.** And the lipid peroxidation [12]?
**A.** induced a lipid peroxidation

**Q.** And the IC50 [13]?
**A.** 260 nM

**Q.** What about the IC50 [14] of the same compound?
**A.** 118 nM

**Q.** And the IC50 [15]?
**A.** 26 nM

**Q.** And the IC50 [16]?
**A.** 14 nM

**Q.** And the IC50 [17]?
**A.** 47 nM

**Q.** And the IC50 [18]?
**A.** 30 nM

**Q.** And the “potency relative to Salinomycin” value [19]?
**A.** ten times more potent

**Q.** What about the IC50 [20] of the same compound?
**A.** 70 nM

**Q.** What about the “total iron in mitochondria” value [21] of the same compound?
**A.** decrease in total iron into the mitochondria

**Q.** And the IC50 [22]?
**A.** 16 nM

**Q.** And the survival ([23]; ironomycin 1 mg/kg IP)?
**A.** did not result in any survival advantage

**Q.** Which cell death [10] does the source give for Venetoclax [reference compound] here?
**A.** induce cell death

**Q.** And the impaired cell viability [24]?
**A.** 6-40%

**Q.** What about the survival ([23]; venetoclax 75 mg/kg oral gavage) of the same compound?
**A.** did not result in any survival advantage
